Laboratory results taken from publication PMC12217109, “Development of novel benzamide class I selective lysine deacetylase inhibitors as potent anticancer agents” (Journal of Enzyme Inhibition and Medicinal Chemistry, 2025).

Key:
OVCAR-5 = experiment: NCI-60 cytotoxicity screen; type: cell-based; conditions: Homo sapiens, NCI-60, 48 h, ovarian
TK-10 = experiment: NCI-60 cytotoxicity screen; type: cell-based, human; conditions: Homo sapiens, TK-10; NCI-60, 48 h, renal
Excerpt: (§1) Compounds 3–7 were submitted to the US National Cancer Institute (NIH, Bethesda, Maryland) for screening against the NCI-60 panel of human cancer cell lines, as per standard protocol.

H322M = experiment: NCI-60 cytotoxicity screen; type: cell-based, human; conditions: Homo sapiens, NCI-H322M; NCI-60, 48 h, NSCLC
Excerpt: as §1

T-47D = experiment: NCI-60 cytotoxicity screen; type: cell-based, human; conditions: Homo sapiens, T47D; NCI-60, 48 h, breast
PC-3 = experiment: NCI-60 cytotoxicity screen; type: cell-based; conditions: Homo sapiens, NCI-60, 48 h, prostate
Excerpt: as §1

KM12 = experiment: NCI-60 cytotoxicity screen; type: cell-based; conditions: Homo sapiens, NCI-60, 48 h, colon
Excerpt: as §1

COLO205 = experiment: NCI-60 cytotoxicity screen; type: cell-based; conditions: Homo sapiens, COLO 205; NCI-60, 48 h, colon
Excerpt: as §1

OVCAR-4 = experiment: NCI-60 cytotoxicity screen; type: cell-based; conditions: Homo sapiens, NCI-60, 48 h, ovarian
Excerpt: as §1

SF-268 = experiment: NCI-60 cytotoxicity screen; type: cell-based; conditions: Homo sapiens, NCI-60, 48 h, CNS
Excerpt: as §1

SN12C = experiment: NCI-60 cytotoxicity screen; type: cell-based; conditions: Homo sapiens, NCI-60, 48 h, renal
Excerpt: as §1

SK-MEL-5 = experiment: NCI-60 cytotoxicity screen; type: cell-based; conditions: Homo sapiens, NCI-60, 48 h, melanoma
Excerpt: as §1

BT 549 = experiment: NCI-60 cytotoxicity screen; type: cell-based; conditions: Homo sapiens, NCI-60, 48 h, breast
Excerpt: as §1

CAKI-1 = experiment: NCI-60 cytotoxicity screen; type: cell-based; conditions: Homo sapiens, NCI-60, 48 h, renal
Excerpt: as §1

SF-295 = experiment: NCI-60 cytotoxicity screen; type: cell-based; conditions: Homo sapiens, NCI-60, 48 h, CNS
Excerpt: as §1

H522 = experiment: NCI-60 cytotoxicity screen; type: cell-based; conditions: Homo sapiens, NCI-60, 48 h, NSCLC
Excerpt: as §1

RPMI-8226 = experiment: NCI-60 cytotoxicity screen; type: cell-based; conditions: Homo sapiens, NCI-60, 48 h, leukaemia
Excerpt: as §1

H23 = experiment: NCI-60 cytotoxicity screen; type: cell-based; conditions: Homo sapiens, NCI-60, 48 h, NSCLC
Excerpt: as §1

SF-539 = experiment: NCI-60 cytotoxicity screen; type: cell-based; conditions: Homo sapiens, NCI-60, 48 h, CNS
Excerpt: as §1

HOP-62 = experiment: NCI-60 cytotoxicity screen; type: cell-based; conditions: Homo sapiens, NCI-60, 48 h, NSCLC
Excerpt: as §1

HS 578 T = experiment: NCI-60 cytotoxicity screen; type: cell-based; conditions: Homo sapiens, NCI-60, 48 h, breast
Excerpt: as §1

SW620 = experiment: NCI-60 cytotoxicity screen; type: cell-based; conditions: Homo sapiens, SW-620; NCI-60, 48 h, colon
Excerpt: as §1

UO-31 = experiment: NCI-60 cytotoxicity screen; type: cell-based; conditions: Homo sapiens, NCI-60, 48 h, renal
Excerpt: as §1

RXF 393 = experiment: NCI-60 cytotoxicity screen; type: cell-based; conditions: Homo sapiens, NCI-60, 48 h, renal
Excerpt: as §1

DU-145 = experiment: NCI-60 cytotoxicity screen; type: cell-based; conditions: Homo sapiens, NCI-60, 48 h, prostate
Excerpt: as §1

OVCAR-3 = experiment: NCI-60 cytotoxicity screen; type: cell-based; conditions: Homo sapiens, NCI-60, 48 h, ovarian
Excerpt: as §1

MCF-7 = experiment: NCI-60 cytotoxicity screen; type: cell-based; conditions: Homo sapiens, MCF7; NCI-60, 48 h, breast
Excerpt: as §1

786-0 = experiment: NCI-60 cytotoxicity screen; type: cell-based; conditions: Homo sapiens, NCI-60, 48 h, renal
Excerpt: as §1

OVCAR-8 = experiment: NCI-60 cytotoxicity screen; type: cell-based; conditions: Homo sapiens, NCI-60, 48 h, ovarian
Excerpt: as §1

ACHN = experiment: NCI-60 cytotoxicity screen; type: cell-based; conditions: Homo sapiens, NCI-60, 48 h, renal
Excerpt: as §1

UACC-62 = experiment: NCI-60 cytotoxicity screen; type: cell-based; conditions: Homo sapiens, NCI-60, 48 h, melanoma
Excerpt: as §1

M14 = experiment: NCI-60 cytotoxicity screen; type: cell-based; conditions: Homo sapiens, NCI-60, 48 h, melanoma
Excerpt: as §1

A549 = experiment: NCI-60 cytotoxicity screen; type: cell-based; conditions: Homo sapiens, NCI-60, 48 h, NSCLC
Excerpt: as §1

IGROV-1 = experiment: NCI-60 cytotoxicity screen; type: cell-based; conditions: Homo sapiens, NCI-60, 48 h, ovarian
Excerpt: as §1

HCT15 = experiment: NCI-60 cytotoxicity screen; type: cell-based; conditions: Homo sapiens, HCT-15; NCI-60, 48 h, colon
Excerpt: as §1

SR = experiment: NCI-60 cytotoxicity screen; type: cell-based; conditions: Homo sapiens, NCI-60, 48 h, leukaemia
Excerpt: as §1

HL-60 = experiment: NCI-60 cytotoxicity screen; type: cell-based; conditions: Homo sapiens, NCI-60, 48 h, leukaemia
Excerpt: as §1

U251 = experiment: NCI-60 cytotoxicity screen; type: cell-based; conditions: Homo sapiens, U-251; NCI-60, 48 h, CNS
Excerpt: as §1

SNB-75 = experiment: NCI-60 cytotoxicity screen; type: cell-based; conditions: Homo sapiens, NCI-60, 48 h, CNS
Excerpt: as §1

EKVX = experiment: NCI-60 cytotoxicity screen; type: cell-based; conditions: Homo sapiens, NCI-60, 48 h, NSCLC
Excerpt: as §1

LOX IMVI = experiment: NCI-60 cytotoxicity screen; type: cell-based; conditions: Homo sapiens, NCI-60, 48 h, melanoma
Excerpt: as §1

SNB-19 = experiment: NCI-60 cytotoxicity screen; type: cell-based; conditions: Homo sapiens, NCI-60, 48 h, CNS
Excerpt: as §1

SK-MEL-28 = experiment: NCI-60 cytotoxicity screen; type: cell-based; conditions: Homo sapiens, NCI-60, 48 h, melanoma
Excerpt: as §1

SK-MEL-2 = experiment: NCI-60 cytotoxicity screen; type: cell-based; conditions: Homo sapiens, NCI-60, 48 h, melanoma
Excerpt: as §1

HCT116 = experiment: NCI-60 cytotoxicity screen; type: cell-based; conditions: Homo sapiens, HCT-116; NCI-60, 48 h, colon
Excerpt: as §1

H460 = experiment: NCI-60 cytotoxicity screen; type: cell-based; conditions: Homo sapiens, NCI-60, 48 h, NSCLC
Excerpt: as §1

MDA-MB-435 = experiment: NCI-60 cytotoxicity screen; type: cell-based; conditions: Homo sapiens, NCI-60, 48 h, melanoma
Excerpt: as §1

NCI/ADR-RES = experiment: NCI-60 cytotoxicity screen; type: cell-based; conditions: Homo sapiens, NCI-60, 48 h, ovarian
Excerpt: as §1

[1] = tested on: A2780 ovarian cancer cell line; experiment: MTT cellular viability assay, A2780; type: cell-based; conditions: Homo sapiens; listed as A2780* of Table 4, ovarian; values as in Tables 1 and 2 (MTT); read-out: A2780* cytotoxicity IC50

**Q.** Nc1ccccc1NC(=O)c1ccc(CNC(=O)OCc2cccnc2)cc1 [Compound 1, Entinostat, reference compound] was tested. Which IC50 (OVCAR-5) did it give?
**A.** 1050 nM

**Q.** What about the IC50 (TK-10) of the same compound?
**A.** 290 nM

**Q.** And the IC50 (H322M)?
**A.** 4790 nM

**Q.** And the IC50 (T-47D)?
**A.** 460 nM

**Q.** What about the IC50 (PC-3) of the same compound?
**A.** 2790 nM

**Q.** What about the IC50 (KM12) of the same compound?
**A.** 4310 nM

**Q.** And the IC50 (COLO205)?
**A.** 2000 nM

**Q.** And the IC50 (OVCAR-4)?
**A.** 1310 nM

**Q.** And the IC50 (SF-268)?
**A.** 1860 nM

**Q.** And the IC50 (SN12C)?
**A.** 9400 nM

**Q.** And the IC50 (SK-MEL-5)?
**A.** 740 nM

**Q.** What about the IC50 (BT 549) of the same compound?
**A.** 4140 nM

**Q.** What about the IC50 (CAKI-1) of the same compound?
**A.** 1170 nM

**Q.** And the IC50 (SF-295)?
**A.** 2560 nM

**Q.** And the IC50 (H522)?
**A.** 700 nM

**Q.** What about the IC50 (RPMI-8226) of the same compound?
**A.** 900 nM

**Q.** And the IC50 (H23)?
**A.** 3220 nM

**Q.** And the IC50 (SF-539)?
**A.** 3190 nM

**Q.** And the IC50 (HOP-62)?
**A.** 2060 nM

**Q.** What about the IC50 (HS 578 T) of the same compound?
**A.** 2330 nM

**Q.** And the IC50 (SW620)?
**A.** 1300 nM

**Q.** What about the IC50 (UO-31) of the same compound?
**A.** 1170 nM

**Q.** What about the IC50 (RXF 393) of the same compound?
**A.** 1490 nM

**Q.** What about the IC50 (DU-145) of the same compound?
**A.** 2260 nM

**Q.** And the IC50 (OVCAR-3)?
**A.** 1740 nM

**Q.** What about the IC50 (MCF-7) of the same compound?
**A.** 640 nM

**Q.** What about the IC50 (786-0) of the same compound?
**A.** 4970 nM

**Q.** And the IC50 (OVCAR-8)?
**A.** 1030 nM

**Q.** What about the IC50 (ACHN) of the same compound?
**A.** 2330 nM

**Q.** What about the IC50 (UACC-62) of the same compound?
**A.** 280 nM

**Q.** What about the IC50 (M14) of the same compound?
**A.** 2350 nM

**Q.** And the IC50 (A549)?
**A.** 3280 nM

**Q.** What about the IC50 (IGROV-1) of the same compound?
**A.** 3950 nM

**Q.** What about the IC50 (HCT15) of the same compound?
**A.** 8470 nM

**Q.** What about the IC50 (SR) of the same compound?
**A.** 530 nM

**Q.** And the IC50 (HL-60)?
**A.** 850 nM

**Q.** What about the IC50 (U251) of the same compound?
**A.** 2030 nM

**Q.** And the IC50 (SNB-75)?
**A.** 5070 nM

**Q.** What about the IC50 (EKVX) of the same compound?
**A.** 3260 nM

**Q.** And the IC50 (LOX IMVI)?
**A.** 1060 nM

**Q.** What about the IC50 (SNB-19) of the same compound?
**A.** 6340 nM

**Q.** What about the IC50 (SK-MEL-28) of the same compound?
**A.** 660 nM

**Q.** And the IC50 (SK-MEL-2)?
**A.** 1100 nM

**Q.** And the IC50 (HCT116)?
**A.** 800 nM

**Q.** What about the IC50 (H460) of the same compound?
**A.** 830 nM

**Q.** And the IC50 (MDA-MB-435)?
**A.** 960 nM

**Q.** What about the IC50 (NCI/ADR-RES) of the same compound?
**A.** 2380 nM

**Q.** And the IC50 [1]?
**A.** 600 nM
